Measurements as given in patent publication US11331333B2, “Treatment of aberrant fibroblast proliferation” (Georg August Universitaet Goettingen Stiftung Oeffentlichen …, priority 2019, dated 2022).

Test system: EYA1A^tg mice challenged with UUO
Experiment: Unilateral ureteral obstruction (UUO) kidney fibrosis in EYA1A^tg mice
Type: in vivo, mouse
Details: Na3VO4 8 mg/kg or caffeine 12.5 mg/kg i.p. once per day; EYA1Atg mice, UUO
Description: From 3 days before surgery, C57BL/6 (referred as wildtype) or transgenic mice overexpressing human splice variants EYA1A (rtTACMV;hEYA1A-pTreTight, referred to as EYA1A^tg) and EYA1C (rtTACMV;hEYA1C-pTreTight, referred to as EYA1C^tg) were treated with either vehicle buffer (glucose 5%) or DOX (2 mg/ml, Sigma, St. Louis, USA) within drinking water ad libidum and renewal every 2 days.
Mice were anesthetized with isoflurane inhalation (2-3%), analgesia was performed by subcutaneous injection of 0.1 mg/kg body weight per day Buprenorphine. The ureter was separated from the surrounding tissues and two ligatures were placed about 5 mm apart in upper two-thirds of the left ureter to obtain reliable obstruction. Mice were sacrificed 3, 7 or 10 days after ureteral obstruction for further analyses.
Mice were injected intraperitoneally with Na3VO4 (8 mg/kg i.p. once per day, Sigma, St. Louis, USA) or caffeine (12.5 mg/kg i.p. once per day, Sigma, St. Louis, USA) starting one day prior of surgery, control mice received equivalent volume of PBS or DMSO.
Mice were injected intraperitoneally with SCR7 (20 mg/kg i.p. every alternate day, Sigma, St. Louis, USA) starting one day prior of surgery, control mice received equivalent volume of DMSO.
The inventors obtained 25 nucleotide antisense morpholino sequences (Gene Tools, Philomath, USA). The in vivo morpholinos contain a covalently linked octaguanidine dendrimer as a delivery moiety to facilitate entry into cells in vivo. Mice were injected intraperitoneally with 12.5 mg/kg body weight in vivo morpholinos in saline at a final volume of 100 μL every other day starting two days prior of surgery. A control in vivo
Lentiviral pLenti-Sce1 was produced in 293T virus packaging cells after transfection using morpholino that targets a human β-globin intron mutation was used as standard control. In vivo morpholino sequences are those of SEQ ID NOs: 9 (EYA1A-VMO), 10 (53Bp1-VMO) and 16 (control).
Formalin-fixed, paraffin-embedded kidneys and hearts from mice, and HOPE-fixed, paraffin-embedded human specimens were sectioned at 3 μm, Masson's Trichrome Stain (MTS) was performed at the University Medicine Göttingen. For morphometric analysis of interstitial fibrosis in mice and human biopsies, we assessed the fibrotic area using cellSens (Olympus, Tokyo, Japan) software. Ten visual fields were selected randomly for each MTS stained section at 200× magnification and the relative interstitial fibrotic area was evaluated by using a 10 mm^2 graticule.
Formalin-fixed, paraffin-embedded kidney sections from mice as well as from HOPE-fixed, paraffin-embedded human specimens were deparaffinized in xylene and rehydrated in ethanol containing distilled water. For immunofluorescent staining, EYA1 isoform antisera or primary antibodies against αSMA (A5228, Sigma, St. Louis, USA), Collagen-1 (ab34710, Abcam Biochemicals, Cambridge, UK), γH2A.X^pS139 (ab2893, Abcam Biochemicals, Cambridge, UK), γH2A.X^pS139 (05-636, Merck Millipore, Billerica, UK), γH2A.X^pY142 (ab94602, Abcam Biochemicals, Cambridge, UK), p-Chk1^pS317 (12302P, Cell Signaling, Danvers, USA), p-Chk2^pT68 (2197S, Cell Signaling, Danvers, USA), Rpa1 (2267S, Cell Signaling, Danvers, USA), Rad51 (sc-8349, Santa Cruz Biotechnology, Dallas, USA), 53Bp1 (sc-22760, Santa Cruz Biotechnology, Dallas, USA), Xrcc4 (sc-8285, Santa Cruz Biotechnology, Dallas, USA) and GFP (MA5-15256, Thermo Fisher Scientific, Waltham, USA) were used, secondary antibodies were labeled with Alexa Fluor 488, 594 or 647 (Life Technologies, Carlsbad, USA). Renal basement membranes were stained with antibodies against Collagen-4 (1340-30, SouthernBiotech, Birmingham, USA). Nuclear staining was performed using 4′,6-diamidino-2-phenylindole (DAPI, Vector Laboratories, Burlingame, USA). Quantifications were performed per high power field at 400× magnification, representative confocal pictures using an LSM 780 confocal laser scanning microscope (Zeiss, Oberkochen, Germany) are shown.

## Cn1c(=O)c2c(ncn2C)n(C)c1=O [caffeine]
  impact of EYA1A overexpression on renal fibrogenesis: reversed the enhancing impact
  γH2A.X^pY142 dephosphorylation: effectively blocked

## [Na+].[Na+].[Na+].[O]=[V]([O-])([O-])[O-] [Na3VO4, sodium orthovanadate]
  impact of EYA1A overexpression on renal fibrogenesis: reversed the enhancing impact
  γH2A.X^pY142 dephosphorylation: effectively blocked
